Laboratory results reported in patent US9738664B2, “Boronic acid inhibitors of HIV protease” (WISCONSIN ALUMNI RESEARCH FOUNDATION, priority 2014, dated 2017).

Experiments:
HIV-1 protease = target: T1, HIV-1 protease (Human immunodeficiency virus type 1 group M subtype B, UniProt P03367, C567A/C595A/L533I/L563I/Q507K); test: biochemical
T1 construct: Double-stranded, linear DNA encoding HIV-1 protease; 8xHis (self-cleavable) (N, cleaved yes); made in house
Description: This peptide was used as a fluorogenic substrate for HIV protease by monitoring the fluorescence of the Edans group (5-((2-aminoethyl)amino)naphthalene-1-sulfonic acid) upon substrate hydrolysis and separation from the quenching Dabcyl group (4-((4-(dimethylamino)phenyl)azo)benzoic acid, succinimidyl ester. [6] Substrate was dissolved at 1 mM by sonication in DMF containing TFA (0.1% v/v). Stock solutions of each putative HIV protease inhibitor were generated by dissolving the inhibitor in DMF to a concentration of 50 mM and diluting in DMF to ˜100×stocks of the final assay concentrations. Assays were performed in 50 mM sodium acetate buffer, pH 5.0, containing NaCl (100 mM). Wells in a microtiter plate were charged initially with inhibitor (various concentrations) and substrate (final concentration: 10 μM). HIV protease was then added (final concentration: 50-150 μM). Reaction velocities in the assay solutions (total volume: 200 μL) were measured in quadruplicate at 7-9 inhibitor concentrations including no-inhibitor and no-enzyme controls.

MT-4 cells = test: Toxicity for MT-4 cells (growth inhibition); format: cell-based, human; settings: concentrations up to 1 mM
HIV = test: Inhibition of HIV cytopathic toxicity in MT-4 cells (MTS cell viability); format: cell-based; settings: virus from pNL4-3 at 100×TCID50, 7 days, MTS assay (FIG. 3)
Description: The ability of B-darunavir to inhibit the cytopathic toxicity of HIV was determined by standard methods (11). Briefly, both human lymphocyte cell line MT-4 and plasmid pNL4-3, which directs the production of infectious virions (12), were obtained from the NIH AIDS Reagent Program. […] Then, MT-4 cells were transfected with plasmid pNL4-3. Maximal virus production was detected on Day 6 post-transfection. Viral inhibition assays were conducted with 25,000 MT-4 cells in 200 μL of RPMI medium containing fetal bovine serum (10% v/v). Infections were conducted with virus at 100×TCID50 by resuspending pelleted cells in 500 μL of virus-containing medium and incubating for 4 h prior to plating with B-darunavir. After 7 days, the loss of HIV cytopathic toxicity was assessed by measuring cell viability using the MTS assay from Promega (Madison, Wis.).

CC(C)CN(C[C@@H](O)[C@H](Cc1ccccc1)NC(=O)O[C@H]1CCOC1)S(=O)(=O)c1ccc(B(O)O)cc1 [B-Amprenavir (6)]
Ki (HIV-1 protease): 2.1 ± 0.3 pM

CC(C)CN(C[C@@H](O)[C@H](Cc1ccccc1)NC(=O)O[C@H]1CO[C@H]2OCC[C@H]21)S(=O)(=O)c1ccc(B(O)O)cc1 [B-Darunavir (9)]
inhibition of the growth of MT-4 cells (toxicity) (MT-4 cells): not to cause a significant inhibition of the growth of MT-4 cells
concentration that inhibits the toxicity of HIV for human lymphocytes (HIV): ≥ 100 nM
